For orientation: IC50 means the concentration at which inhibition is half-maximal.

The values that follow come from EP4349409A1, “COMPOUNDS FOR THE MANAGEMENT OF CELL STEMNESS AND INVASION IN CANCER AND RELATED DISEASES” (Instituto Biomar S.A., priority 2022, dated 2024).

The test system of assay [1] is G144. The following applies: called 'known'; cell line not stated, used in G144 parental and resistant clone experiment; cited from earlier work.
In the next assay the test system is U373. As to the kind of experiment: MTT-based cytotoxicity assay, U373. It counts as cell-based. The following applies: Homo sapiens, U373 MG, 72 h. How it is done: (§1) A dose-response analysis of BMT9 (concentrations ranging from 4.5 µM-18 µM), BCNU (from 150 µM-500 µM) and TMZ (350 µM-700 µM) was performed in two conventional glioblastoma cell lines (T98G, U373) and the GNS cell line G144 by MTT-based cytotoxicity assays (Figure 5A-D). Cells were seeded on p96-well plates and treated with the different compounds for 72 h. Then, the MTT reagent (3-(4,5-Dimethyl-2-thiazolyl)-2,5-diphenyl-2H-tetrazolium bromide diluted in PBS to a concentration of 1mg/ml), was added to each well to a final concentration of 0.33mg/ml, and incubated for 3 h at 37°C. After that, the media was removed, and formazan crystals were solubilized with DMSO. Absorbance was measured at 560 nm using a "Synergy HT" plate reader (Biotek). In the graphs, the Y axis represents the percentage of cell viability relative to non-treated cells. The IC50, when reached are marked by a rectangle. DMSO treatment had no effect on cell viability.

The subject of a further assay is T98G. Put plainly: MTT-based cytotoxicity assay, T98G. It counts as cell-based. The following applies: Homo sapiens, 72 h. The protocol:
as §1
(Formazan colour is commonly taken as a measure of viable cells.)

Assay [2] deals with G144. As to the kind of experiment: MTT-based cytotoxicity assay, G144. Particulars: Homo sapiens, 72 h, G144, MTT. Format: cell-based, human. How it is done:
as §1
Previous studies have reported that the molecular signature of the GNSC G144 cell line corresponds to a 'proneural' subtype of GB with NSC features (Pollard et al., 2009; Danovi et al., 2013). Thus, to test BMT9 specificity we compared cellular viability when treating CD133-positive cells (either GNSCs or normal human fetal neural stem cells-NSC) versus CD133-negative human embryonic fibroblast (HEFs) (Figure 8A). MTT-based cytotoxicity assay (Figure 7B-D) were performed as previously described.
While the first line therapy of gliomas has proven its effectiveness and improved clinical outcomes, acquired chemoresistance to alkylating agents has been identified as a major cause of treatment failure (Sarkaria et al., 2008). In a murine model of GB, long-term treatment with subtoxic TMZ doses enriched the side population of cancer stem cells, increasing the tumor aggressiveness (Bleau et al., 2009). Thus, we generated TMZ-resistant G144-clones that were selected upon treatment with TMZ either at 500 µM or 700 µM for several months (R500 and R700, respectively). The obtained clones maintained CD133 stem marker expression (Figure 9A). We then analyzed BMT9 dose-dependent effect on cell viability, by MTT assay, comparing the resistant clones to parental cells.

For the next assay, the system named is GNSCs. Put plainly: MTT assay of BMT9 analogues against GNSCs. It counts as cell-based. The following applies: 48 and 72 h. How it is done: as §1
The cytotoxicity of two BMT9 analogues synthetized by Instituto Biomar S.A. was evaluated by MTT assays.

Another assay has as its system P1-TP73 promoter. Put plainly: P1-p73-Fluc-DsRed reporter validation in HCT116 p53-/- cells. Format: cell-based, human. Particulars: HCT116 p53-/- cells transfected with P1-p73-FlucDsRed vector, cultured with Doxo, 24 and 48 hours. An excerpt:
A bimodal reporter vector, named P1-p73-Fluc-DsRed2, was engineered based on the previously published lentiviral system LV-CMV-Fluc-dsRed2 (Shah et al., 2008). […] Using this backbone, the CMV promoter was swapped for a 930 bp fragment of the human P1-TP73 promoter contained in the P1-p73-Luc-pGL3-Basic vector (-859 to +71 of TP73 gene) (Seelan et al., 2002) (Figure 1A'). To validate the generated system, we used the HCT116 p53-/- cells in which endogenous TAp73 expression can be induced by the genotoxic drug doxorubicin (Doxo), at RNA and protein levels (Figure 1B and Vossio et al., 2002, respectively). Next, we tested whether the engineered reporter vector could monitor these changes in endogenous TAp73 RNA levels. For this purpose, HCT116 p53-/- cells were either non-transfected (NT) or transfected with P1-p73-FlucDsRed vector and cultured with Doxo (black square fill pattern bar) or without treatment (grey bar) for the indicated time points (Figure 1C), at which the fluorescence levels (DsRed, Y axis) were measured by fluorimetry.
As depicted in Figure 1C, we detected an increase in endogenous P1-promoter activity after 24 and 48 hours of culture […].

Read-outs that look alike come from different tables or passages of the source. A value given as a limit tells only on which side of the number the result lay.

For the molecule `O=NN(CCCl)C(=O)NCCCl` [BCNU, carmustine, reference compound], the IC50 with G144 [1] is 500 µM; with U373 it was 250 µM; in the assay on T98G it was 500 µM; with G144 [2] it was 250 µM.

As for `C=C1C2CCC(C)(C3COc4c(C=O)c5c(c(OC)c4C3O)C(=O)OC5OC(C)=O)C1CCC2(C)C` (stereo not shown) [BMT9.5], in the assay on GNSCs, the IC50 is ≤ 4.5 µM.

Take `COc1cccc2c1C(=O)c1c(O)c3c(c(O)c1C2=O)C[C@@](O)(C(=O)CO)C[C@@H]3O[C@H]1C[C@H](N)[C@H](O)[C@H](C)O1` [Doxo, doxorubicin]: in the assay on P1-TP73 promoter, the “reporter activity (DsRed fluorescence)” value is “increase in reporter activity that was sustained after 48 hours”. For the molecule `C=C1C2CCC(C)(C3COc4c(C=O)c5c(c(OC)c4C3O)C(=O)OC5O)C1CCC2(C)C` (stereo not shown) [BMT9.2], the IC50 in the assay with GNSCs was ≤ 4.5 µM.
